Source: patent US10912759B2 (priority 2018, dated 2021)

Assays:
S. aureus = assay: MIC and MBC of topical gel vs. Mupirocin; format: cell-based, Staphylococcus aureus; conditions: 0-10% w/v, overnight at 37° C., aliquots plated, lack of any growth
Experimental: MIC was determined by visually observing where turbid growth stopped, MBC was determined by taking aliquots from each tube, plating onto media, and observation for lack of any growth.
Mupirocin is the standard ointment for treatment of S. aureus topical infections. […] MIC was determined by visually observing where turbid growth stopped, MBC was determined by taking aliquots from each tube, plating onto media, and observation for lack of any growth.

PsrA = assay: S. aureus gene expression by RT-PCR; format: cell-based; conditions: 1% (w/v), one hour, RNA level by RT-PCR
From the text: (§1) FIG. 10 is a graph showing the effect of the topical gel on S. aureus gene expression compared to mupirocin treatment. Results are expressed as percent change in intensity values.
(§2) FIG. 11 is a graph showing the effect of the topical gel on S. aureus gene expression compared to control and mupirocin treatment. Results are expressed as gene expression intensity ratios.
(§3) In an effort to elucidate the mechanism of action of the topical gel on S. aureus as well as to examine any commonalities or differences in Staphylococcal response to treatment, transcriptional response was evaluated. S. aureus was either 1) grown alone as a control, 2) grown in 1% (w/v) topical gel, or 3) grown in 1% (w/v) Mupirocin for one hour. Cells were harvested and total RNA was extracted. Reverse Transcriptase polymerase chain reaction using gene specific primers was utilized to determine the RNA levels for the specific genes RecA, SprX, and PsrA. RecA is a protein specific for SOS response in Staphylococcus indicative of a need to repair DNA damage. SprX is a small RNA associated with Staphylococcus antibiotic resistance. PsrA regulates expression of proteins in the cell wall of Staphylococcus which are both essential for bacterial survival and antibiotic resistance.

SprX = format: cell-based, S. aureus; conditions: 1% (w/v), one hour, RNA level by RT-PCR
From the text: as §1, §2, §3

For `C/C(=C\C(=O)OCCCCCCCCC(=O)O)C[C@@H]1OC[C@H](C[C@@H]2O[C@H]2[C@@H](C)[C@H](C)O)[C@@H](O)[C@H]1O` [Mupirocin], the “MBC values compared to topical gel” value (S. aureus) was “lower MBC values”, the “reduction of expression of PsrA” value (PsrA) was 56% and the “reduction of expression of SprX” value (SprX) was 78%.
